Results taken from article PMC4186413, “Identification of metabolic pathways and enzyme systems involved in the in vitro human hepatic metabolism of dronedarone, a potent new oral antiarrhythmic drug” (Pharmacology Research & Perspectives, 2014).

What was measured:
[1] = test system: UGT1A1, UGT1A3, UGT1A4, UGT1A6, UGT1A7, UGT1A8, UGT1A9, UGT1A10, UGT2B4, UGT2B7, UGT2B15, and UGT2B17; test: Glucuronidation by the panel of recombinant human UGT isoforms; format: in vitro ADME; settings: 1 mg/mL, 5 μmol/L, 30 min, UDPGA
Description: Recombinant human CYPs (Supersomes™; BD Gentes, Woburn, MA: CYP1A1, CYP1A2, CYP2A6, CYP2B6, CYP2C8, CYP2C9, CYP2C18, CYP2C19, CYP2D6, CYP2E1, CYP3A4 and CYP3A5), FMOs (Supersomes™: FMO1, FMO3, FMO5), MAOs (Supersomes™: MAO-A and MAO-B), and UGTs (Supersomes™: UGT1A1, UGT1A3, UGT1A4, UGT1A6, UGT1A7, UGT1A8, UGT1A9, UGT1A10, UGT2B4, UGT2B7, UGT2B15, and UGT2B17) expressed in baculovirus-infected insect cells and control microsomes from insect cells infected with wild-type baculovirus were all obtained from BD Gentest (Woburn, MA).
For glucuronidation pathways, the assay mixture was composed of human liver microsomes (2 mg·mL^−1) or microsomes of baculovirus-infected cells expressing human UGTs (1 mg·mL^−1), uridine 5′-diphosphoglucuronic acid (UDPGA) (3 mmol/L), 100 mmol/L Tris HCl (pH 7.4) containing 5 mmol/L MgCl2 and 5 μmol/L of the investigated compound dissolved in DMSO in a final volume of 500 μL. The final concentration of DMSO in the reaction mixture was less than 1% (v/v). Initial rate conditions with respect to time and protein concentration for both the disappearance of unchanged drug and the formation of respective metabolites were established in preliminary studies. The microsomal mixture was first incubated for 10 min at 4°C in the presence of alamethicin (0.125 mg·mL^−1), then the reaction was initiated by addition of UDPGA (30 mmol/L aqueous solution) to achieve a final concentration of 3 mmol/L for UGT-dependent reactions, incubated at 37°C and stopped after 0–30 min by addition of one volume of ice-cold acetonitrile. […]
Figure 7 Contribution of individual UGTs to the glucuronidation of propanoic acid-dronedarone and phenol-dronedarone. […] Unchanged drugs were quantified by LC/MS-MS relative to the synthetic references as described in Materials and Methods. Data are expressed as the percentage of glucuronidation.

MAO = biological target: T1, MAO (Homo sapiens, UniProt P21397); test: Contribution of MAO to hepatocyte clearance (clorgyline inhibitory effect); format: in vitro ADME; settings: for Effect of clorgyline on metabolism in hepatocytes: 5 μmol/L drug; for fm MAO, Mean ± SD: mean of hepatocyte preparations
T1 construct: host or cells: cryopreserved human hepatocytes in primary culture
T1 sequence (P21397 1-527): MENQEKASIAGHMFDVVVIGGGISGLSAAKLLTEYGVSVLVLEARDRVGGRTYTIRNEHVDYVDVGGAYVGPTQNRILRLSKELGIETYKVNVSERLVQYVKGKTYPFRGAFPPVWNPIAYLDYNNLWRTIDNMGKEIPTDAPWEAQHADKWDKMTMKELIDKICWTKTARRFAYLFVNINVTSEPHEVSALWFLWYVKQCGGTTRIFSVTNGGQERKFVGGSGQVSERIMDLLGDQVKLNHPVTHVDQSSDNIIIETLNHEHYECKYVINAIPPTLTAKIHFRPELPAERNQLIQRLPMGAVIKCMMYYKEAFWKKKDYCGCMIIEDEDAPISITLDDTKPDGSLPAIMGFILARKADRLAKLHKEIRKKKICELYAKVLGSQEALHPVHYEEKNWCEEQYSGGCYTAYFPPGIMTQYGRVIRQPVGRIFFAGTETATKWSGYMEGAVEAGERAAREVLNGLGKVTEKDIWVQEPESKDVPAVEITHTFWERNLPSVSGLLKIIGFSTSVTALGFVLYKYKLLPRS
Experimental: Experiments were performed in 48-well plastic plates coated with rat tail Collagen type I. Plates were seeded with 0.16 × 10^5 hepatocytes per well in a final volume of 0.2 mL and incubated at 37°C under a 95% humidified air and 5% CO2 atmosphere. After 3 h during which cells were allowed to attach, the medium was renewed with 0.1 mL serum-free medium. Then, the investigated drug or metabolic probe(s) were added directly to the incubation medium in the absence or the presence of inhibitors such as either ketoconazole as a specific and potent CYP3A inhibitor (3 μmol/L final concentration), clorgyline (0.25 μmol/L final concentration) as a potent MAO-A inhibitor or ABT as a potent but nonselective CYP isoforms inhibitor (1 mmol/L final concentration) (Fabre et al. [1988]; Bourrié et al. [1996]; Klieber et al. [2008]). Regardless of the final concentration investigated, the final solvent (DMSO) concentration never exceeded 0.2% (v/v).
To determine the metabolism of the different compounds (metabolic probes, dronedarone, N-debutyl-dronedarone, propanoic acid-dronedarone, phenol-dronedarone, and C-dealkyl-dronedarone), kinetic studies were performed over 0–24 h. For each time point, 0.1 mL of acetonitrile was added to the specific well for protein precipitation, and both extracellular medium and the cell fraction were scraped together. Cell extracts were transferred to a glass tube and stored at −20°C until analysis. Before analysis, cell homogenates were sonicated for a few seconds, homogenized and centrifuged at 6000 g for 10 min. Supernatant fluids were then analyzed for the different drugs and their specific metabolites.
The fraction metabolized (fm) by MAO, CYP3A or total CYPs was determined using the following equation: [drawing 3] where: kei is the elimination rate constant (expressed in h^−1) in the presence of the inhibitor.
The kinetics of drug disappearance were investigated using four different cryopreserved human hepatocyte preparations in primary cultures following incubation with either dronedarone or its metabolites at a concentration of 5 μmol/L. Incubations were performed either in the absence, that is control conditions, or in the presence of enzyme system inhibitors such as 3 μmol/L ketoconazole (specific and potent inhibitor of CYP3A4/5), 1 mmol/L ABT (a potent and […] inhibitor of total CYPs), or 0.25 μmol/L clorgyline (a potent MAO-A inhibitor) (Dorris [1982]). Kinetic studies were performed over 24 h.

[2] = HU-1358, 0.25 μmol/L clorgyline
[3] = IVT-IBG, 0.25 μmol/L clorgyline

| SMILES | Glucuronidation by recombinant human UGT isoforms [1] | Effect of clorgyline on metabolism in hepatocytes (MAO; 0.25 μmol/L clorgyline) | fm MAO (MAO; BD-91, 0.25 μmol/L clorgyline) | fm MAO (MAO; BD-296, 0.25 μmol/L clorgyline) | fm MAO (MAO; [2]) | fm MAO (MAO; [3]) | fm MAO, Mean ± SD (MAO; 0.25 μmol/L clorgyline) |
| --- | --- | --- | --- | --- | --- | --- | --- |
| CCCCN(CCCC)CCCOc1ccc(C(=O)O)cc1 [C-dealkyl-dronedarone] | No glucuronidation was observed | no effect | – | – | – | – | – |
| CCCCNCCCOc1ccc(C(=O)c2c(CCCC)oc3ccc(NS(C)(=O)=O)cc23)cc1 [N-debutyl-dronedarone] | No glucuronidation was observed | potently inhibited | 88% | 80% | 86% | 83% | 84 ± 3% |
| CCCCc1oc2ccc(NS(C)(=O)=O)cc2c1C(=O)c1ccc(OCCC(=O)O)cc1 [Propanoic acid-dronedarone] | – | no inhibitory effect | 12% | 0% | 0% | 0% | 3 ± 5% |
| CCCCc1oc2ccc(NS(C)(=O)=O)cc2c1C(=O)c1ccc(OCCCN(CCCC)CCCC)cc1.Cl [Dronedarone, N-(2-Butyl-3-(4-(3-(dibutylamino)propoxy)benzoyl)-5-benzofuranyl)methanesulfonamide, hydrochloride] | No glucuronidation was observed | minor inhibitory effect | 18% | – | 23% | 43% | 29 ± 14% |
| CCCCc1oc2ccc(NS(C)(=O)=O)cc2c1C(=O)c1ccc(O)cc1 [Phenol-dronedarone] | – | did not contribute | – | – | – | – | – |
